This note sets out measurements from the Deep4Chem optical property database.

This series can be described thus: photoluminescence quantum yield (fraction); solvent given as SMILES.

As for `C=C[Si]1(C)c2ccccc2-c2cc3c(cc21)-c1ccccc1[Si]3(C)C=C` (configuration not stated), the photoluminescence quantum yield (in ClCCl) came to 0.5.

As for `O=C1CCCC2=C1CC1=C(CCCC1=O)N2NC(=O)c1ccccc1`, the photoluminescence quantum yield reads like this: (in C1CCOC1) 0.33; (in CC#N) 0.46; (in CC(C)=O) 0.42; (in CCCCCO) 0.42; (in CO) 0.34; (in ClC(Cl)Cl) 0.62. Further, where the note is “in ClCCl”, the photoluminescence quantum yield turned out to be 0.31.

With `CCCCCCCCCCCCC1(CCCCCCCCCCCC)c2cc(-c3ccc(C=C4C(=O)c5ccccc5C4=O)cc3)ccc2-c2ccc(-c3ccc(C=C4C(=O)c5ccccc5C4=O)cc3)cc21`, the photoluminescence quantum yield by setting is: (in C1CCOC1) 0.046; (in CC(C)=O) 0.121; (in CCCCCC) 0.008; (in CS(C)=O) 0.228; (in Cc1ccccc1) 0.012; (in ClC(Cl)Cl) 0.013.

`CN(C)c1ccc(/C=C/c2nc3ccccc3s2)cc1`: the photoluminescence quantum yield is, setting by setting: (in C1CCCCC1) 0.001; (in C1CCOC1) 0.003; (in C1COCCO1) 0.0022; (in CC#N) 0.0066; (in CC(C)O) 0.0048; (in CCCCCC) 0.0018. The photoluminescence quantum yield is, setting by setting: (in CCCCCCC) 0.0014; (in CCO) 0.0045; (in CCOC(C)=O) 0.0053; (in CCOCC) 0.002; (in CN(C)C=O) 0.007; (in CO) 0.003. Further, the photoluminescence quantum yield runs as follows: (in CS(C)=O) 0.0078; (in O) 0.0012; (in OCC(O)CO) 0.115.

Regarding `Cc1ccc(C2=C3C=CC(c4ccccc4)=[N+]3[B-](F)(F)n3c(Cl)ccc32)cc1`, the photoluminescence quantum yield reads like this: (in C1CCCCC1) 0.076; (in C1CCOC1) 0.084; (in C1COCCO1) 0.079; (in CCOC(C)=O) 0.046; (in CO) 0.037; (in Cc1ccccc1) 0.13. In addition, for the setting “in ClC(Cl)Cl”, the photoluminescence quantum yield was found to be 0.095.

`C(=C\c1cnc2ccccc2n1)/c1ccc(-c2ccc(N(c3ccccc3)c3ccccc3)cc2)cc1` gave a photoluminescence quantum yield (in ClCCl) of 0.35.

With `Cc1ccc(N(c2ccc(C)cc2)c2ccc(-c3ccc4c(c3)C(=O)c3ccccc3C4=O)cc2)cc1`, the photoluminescence quantum yield runs as follows: (in C1CCOC1) 0; (in CCCCCC) 0.403; (in CCOC(C)=O) 0; (in CCOCC) 0.0041; (in Cc1ccccc1) 0.0801; (in ClC(Cl)(Cl)Cl) 0.246. This compound had a photoluminescence quantum yield (in ClCCl) of 0.

Where the note is “in CC#N”, `COc1ccc(-c2csc(/C(C#N)=C/c3ccc(C(F)(F)F)cc3)n2)cc1` yielded a photoluminescence quantum yield of 0.015.

`COc1ccc(N(c2ccc(OC)cc2)c2ccc3c(c2)C2(c4cc(N(c5ccc(OC)cc5)c5ccc(OC)cc5)ccc4C=C3)c3ccccc3-c3ccccc32)cc1` came in with a photoluminescence quantum yield (in ClCCl) of 0.9.

Under “in O=P(c1ccccc1)(c1ccccc1)c1ccccc1Oc1ccccc1P(=O)(c1ccccc1)c1ccccc1”, `c1ccc(-c2nc(-c3ccccc3)nc(-c3cccc(-n4c5ccccc5c5c6oc7ccccc7c6ccc54)c3)n2)cc1` showed a photoluminescence quantum yield of 0.311.

As for `CCCCCCCCCCCCCCCCCCN1C(=O)c2ccc3c4ccc5c6c(ccc(c7ccc(c2c37)C1=O)c64)C(=O)NC5=O`, the photoluminescence quantum yield (in CN(C)C=O) worked out at 0.37.

`COc1ccc(C2=C(c3ccc(-c4ccccc4)cc3)C(c3ccccc3)=[N+]3C2=Nc2c(-c4ccc(OC)cc4)c(-c4ccc(-c5ccccc5)cc4)c(-c4ccccc4)n2[B-]3(F)F)cc1` had a photoluminescence quantum yield (in Cc1ccccc1) of 0.01.

Take `COc1cc(OC)c(C2=C3C(C)=CC(C)=[N+]3[B-](F)(F)n3c(C)cc(C)c32)c(OC)c1`: the photoluminescence quantum yield runs as follows: (in C1CCOC1) 0.78; (in CC#N) 0.55; (in CC(=O)C(C)(C)C) 0.69; (in CC(C)=O) 0.8; (in CCCCCC) 0.95; (in CCOC(C)=O) 0.64. The compound also showed a photoluminescence quantum yield (in CO) of 0.68.

For the compound `CCC1=C(C2=C(C3=C(CC)S(=O)(=O)c4ccccc43)C(F)(F)C(F)(F)C2(F)F)c2ccccc2S1(=O)=O`, where the note is “in C1COCCO1”, the photoluminescence quantum yield turned out to be 0.

With `c1ccc(-c2nnc(-c3ccc(N4c5ccccc5N(c5ccccc5)c5ccccc54)cc3)n2-c2ccccc2)cc1`, the photoluminescence quantum yield is 0.07 (in Cc1ccccc1) and 0.42 (in c1cc(-n2c3ccccc3c3ccccc32)cc(-n2c3ccccc3c3ccccc32)c1).

Take `CC1(C)c2ccccc2N(c2ccc(-c3ccc4c(c3)c3cc(-c5ccc(N6c7ccccc7C(C)(C)c7ccccc76)cc5)ccc3c3nc(C#N)c(C#N)nc43)cc2)c2ccccc21`: the photoluminescence quantum yield is, setting by setting: (in Cc1ccccc1) 0.33; (in O=P(c1ccccc1)(c1ccccc1)c1cccc(-c2cc(-n3c4ccccc4c4ccccc43)cc(-n3c4ccccc4c4ccccc43)c2)n1) 0.65.

`COc1ccc(/C=C/c2nc(-c3ccc([N+](=O)[O-])cc3)[nH]c2/C=C/c2ccc(OC)cc2)cc1` displayed a photoluminescence quantum yield (in ClCCl) of 0.

For `CN(C)c1c2ccccc2cc2ccccc12`, the photoluminescence quantum yield by setting is: (in C1CCCCC1) 0.008; (in C1CCOC1) 0.01; (in C1COCCO1) 0.013; (in CC#N) 0.007; (in CCO) 0.007; (in CN(C)C=O) 0.016. Also, the photoluminescence quantum yield (in CO) stood at 0.008; the photoluminescence quantum yield (in COCCOC) stood at 0.007; the photoluminescence quantum yield (in CS(C)=O) is 0.018; the photoluminescence quantum yield (in O) came to 0.011; the photoluminescence quantum yield (in OCC(O)CO) stood at 0.068; the photoluminescence quantum yield (in OCCO) was 0.022.

Turning to `CC[n+]1nc2cc3c(cc2c2cc(C)ccc21)N(C)CCC3`, the photoluminescence quantum yield (in O) was 0.54.

With `COc1ccc2cc(/C=C/c3nc(/C=C/c4ccc(N(C)C)cc4)cc(/C=C/c4ccc(N(C)C)cc4)n3)ccc2c1`, for the setting “in ClCCl”, the photoluminescence quantum yield worked out at 0.52.

For the setting “in ClCCl”, `CN(C)c1ccc(-c2nc(-c3ccc(N(C)C)cc3)c3ccccc3n2)cc1` had a photoluminescence quantum yield of 0.8.

In turn, `N#Cc1c(N2CCCCC2)cc(-c2cccc3ccccc23)c2c1CCc1ccccc1-2` came in with a photoluminescence quantum yield (in C1CCOC1) of 0.42.

Turning to `CCCCCCn1c2cc(/C=C/c3cccs3)ccc2c2ccc(/C=C/c3cccs3)cc21`, the photoluminescence quantum yield (in ClC(Cl)Cl) turned out to be 0.89.

The compound `N#Cc1ccc(C#Cc2ccc(C#Cc3ccccc3C#N)cc2C#N)cc1` registered a photoluminescence quantum yield (in ClC(Cl)Cl) of 0.783.

As to `COc1ccc(/C=C/C2=CC(/C=C/c3ccc(OC)cc3)=[O+][B-](OC(C)=O)(OC(C)=O)O2)cc1`, the photoluminescence quantum yield stood at 0.95 (in C1CCOC1); 0.85 (in CC#N); 0.88 (in CC(C)=O); 0.83 (in CS(C)=O); 0.98 (in Cc1ccccc1); 0.91 (in ClC(Cl)Cl). For the same compound, the photoluminescence quantum yield (in ClCCl) came to 0.92.

For the compound `Nc1ccc2c(-c3ccccc3C(=O)[O-])c3ccc(=[NH2+])cc-3oc2c1`, the photoluminescence quantum yield by setting is: (in CC#N) 0.95; (in CCO) 0.88; (in CN(C)C=O) 0.84; (in O) 0.85.

Consider `CC1=CC(C)=[N+]2C1=Cc1c(C)c(C3=C(C)C4=Cc5c(C)cc(C)n5[B-](F)(F)[N+]4=C3C)c(C)n1[B-]2(F)F`, for which, for the setting “in ClCCl”, the photoluminescence quantum yield worked out at 0.66.

`O=c1c2cc3ccc4cccc5ccc(c2c(=O)n1-c1ccccc1)c3c45` registered a photoluminescence quantum yield (in ClC(Cl)Cl) of 0.5.

In turn, `COc1ccc(-c2cc3c(s2)c(C(C)=O)cc(=O)n3Cc2ccccc2)cc1` displayed a photoluminescence quantum yield (in CC#N) of 0.61 and a photoluminescence quantum yield (in ClCCl) of 0.99.

For the compound `F[B-]1(F)n2c(c(-c3ccccc3)c3ccccc32)C(c2ccccc2)=C2C(c3ccccc3)=c3ccccc3=[N+]21`, for the setting “in ClCCl”, the photoluminescence quantum yield stood at 0.

Turning to `CCCCCCCCC1(CCCCCCCC)c2cc(-c3ccccc3)ccc2-c2ccc(-c3ccccc3)cc21`, the photoluminescence quantum yield (in ClC(Cl)Cl) is 0.85.

With `Cn1c(=O)c(/N=N/c2ccc(S(=O)(=O)O)c3ccccc23)c(O)c2ccccc21`, the photoluminescence quantum yield (in CS(C)=O) was 0.02.

`FC(F)(F)C(F)(F)C(F)(F)c1nc2c(-c3ccsc3)cc3c4cc(-c5ccsc5)c5nc(C(F)(F)C(F)(F)C(F)(F)F)nc6c(-c7ccsc7)cc(c7cc(-c8ccsc8)c(n1)c2c37)c4c56` returned a photoluminescence quantum yield (in C1CCOC1) of 0.62.

For `C(=C\c1c2ccccc2cc2ccccc12)/c1ccc2ccccc2n1`, the photoluminescence quantum yield is, setting by setting: (in CC1CCCCC1) 0.41; (in CC#N) 0.04.

For `COc1cccc(OC)c1C1=C2C(C)=CC(C)=[N+]2[B-](F)(F)n2c(C)cc(C)c21`, the photoluminescence quantum yield (in C1CCOC1) was found to be 0.64; the photoluminescence quantum yield (in CC#N) was determined as 0.54; the photoluminescence quantum yield (in CC(=O)C(C)(C)C) came to 0.64; the photoluminescence quantum yield (in CC(C)=O) turned out to be 0.72; the photoluminescence quantum yield (in CCCCCC) turned out to be 0.71; the photoluminescence quantum yield (in CCOC(C)=O) came out at 0.47. The photoluminescence quantum yield (in CO) was determined as 0.58.

Turning to `COc1ccc2c3c(c4ccc(OC)cc4c2c1)C(C)(C)c1c-3ccc2ccccc12`, where the note is “in C1CCCCC1”, the photoluminescence quantum yield worked out at 0.26.

Regarding `N#Cc1nn(-c2c(Cl)cccc2Cl)nc1N1CCCC1`, for the setting “in CC#N”, the photoluminescence quantum yield came to 0.113.

In turn, `Cc1cc(-c2ccc(N(c3ccccc3)c3ccccc3)cc2)c2nsnc2c1-c1ccc(C(C)(C)C)cc1` had a photoluminescence quantum yield (in ClCCl) of 0.19.

`CC(C)(C)c1cc2ccc3c(N(c4ccccc4)c4ccccc4)cc(N(c4ccccc4)c4ccccc4)c4ccc(c1)c2c34`: the photoluminescence quantum yield (in ClCCl) came to 0.82.
